This passage reports IC50 results from US9334263B2, “Compositions useful for treating disorders related to kit” (BLUEPRINT MEDICINES CORPORATION, priority 2013, dated 2016).

Some results are limits rather than exact numbers.

T1 sequence (P10721 26-976): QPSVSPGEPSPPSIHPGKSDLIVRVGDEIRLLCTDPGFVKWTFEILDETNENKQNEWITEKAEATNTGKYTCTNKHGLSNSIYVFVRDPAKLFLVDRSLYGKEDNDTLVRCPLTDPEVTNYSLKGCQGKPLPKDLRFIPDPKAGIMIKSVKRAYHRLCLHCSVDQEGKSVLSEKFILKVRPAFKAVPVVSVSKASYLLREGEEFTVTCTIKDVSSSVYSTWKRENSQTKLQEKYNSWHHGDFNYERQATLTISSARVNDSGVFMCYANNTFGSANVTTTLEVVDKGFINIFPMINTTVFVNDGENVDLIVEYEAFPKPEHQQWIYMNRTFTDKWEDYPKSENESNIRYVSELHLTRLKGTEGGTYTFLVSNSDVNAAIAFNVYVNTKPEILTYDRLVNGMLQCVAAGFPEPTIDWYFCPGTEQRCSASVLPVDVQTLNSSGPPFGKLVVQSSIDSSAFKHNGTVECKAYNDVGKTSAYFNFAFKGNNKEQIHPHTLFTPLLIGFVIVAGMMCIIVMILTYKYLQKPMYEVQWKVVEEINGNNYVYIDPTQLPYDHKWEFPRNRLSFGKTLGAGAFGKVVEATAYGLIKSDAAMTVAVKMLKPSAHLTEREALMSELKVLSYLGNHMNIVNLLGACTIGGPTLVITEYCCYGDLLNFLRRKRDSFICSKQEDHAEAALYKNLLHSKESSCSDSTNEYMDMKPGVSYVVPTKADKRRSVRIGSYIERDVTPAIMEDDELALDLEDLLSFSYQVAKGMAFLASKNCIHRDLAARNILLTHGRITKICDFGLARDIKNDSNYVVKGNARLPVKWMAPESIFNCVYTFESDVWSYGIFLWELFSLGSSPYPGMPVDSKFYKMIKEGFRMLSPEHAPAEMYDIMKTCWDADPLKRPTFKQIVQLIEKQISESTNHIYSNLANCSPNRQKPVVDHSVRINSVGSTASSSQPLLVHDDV
T4 sequence (P10721 26-976 V560G/D816V): as the sequence (P10721 26-976) above, with V535G, D791V counted along it

The first assay has as its target T1, wild type Kit (Homo sapiens, UniProt P10721).
T1 construct: purchased Carna Bioscience 08-156
The experiment in a line: Kit wild type assay at Km (Caliper electrophoretic mobility shift). The format is biochemical. Conditions: 400 uM ATP, 25 C, 90 minutes; read-out: WT KIT. How it is done:
(§1) In order to assess the activity of chemical compounds against the relevant kinase of interest, the Caliper LifeSciences electrophoretic mobility shift technology platform is used. Fluorescently labeled substrate peptide is incubated in the presence of kinase and ATP so that a […] proportion of the peptide is phosphorylated. At the end of the reaction, the mix of phosphorylated (product) and non-phosphorylated (substrate) peptides are passed through the microfluidic system of the Caliper EZ Reader 2, under an applied potential difference. The presence of the phosphate group on the product peptide provides a difference in mass and charge between those of the substrate peptide, resulting in a separation of the substrate and product pools in the sample. As the pools pass a LEDS within the instrument, these pools are detected and resolved as separate peaks. The ratio between these peaks therefore reflects the activity of the chemical matter at that concentration in that well, under those conditions.
The reaction was stopped by the addition of 70 ul of Stop buffer (100 mM HEPES pH 7.5, 0.015% Brij 35, 35 mM EDTA and 0.2% of Coating Reagent 3 (Caliper Lifesciences)). The plate was then read on a Caliper EZReader 2 (protocol settings: −1.9 psi, upstream voltage −700, downstream voltage −3000, post sample sip 35 s).
Turning to `FC1(Cn2cc(Nc3ncnc(N4CCN(c5ncc(Cc6ccccc6)cn5)CC4)n3)cn2)CCNCC1` [Compound 191], the IC50 is below 10 nM.
Same read-out and setting: to `Cc1cc(N2CCN(C)CC2)ccc1Nc1ncnc(N2CCN(c3ncc(Cc4ccccc4)cn3)CC2)n1` [Compound 212] belongs 11 to 100 nM; to `COCCN1CCc2ccc(Nc3ncnc(N4CCN(c5ncc(Cc6ccccc6)cn5)CC4)n3)cc2C1` [Compound 215], below 10 nM; to `CN1CCC[C@@H](Oc2ccc(Nc3ncnc(N4CCN(c5ncc(Cc6ccccc6)cn5)CC4)n3)cc2)C1` [Compound 216], below 10 nM.
The same measure, in the same setting: as for `CN1CCC[C@H](Oc2ccc(Nc3ncnc(N4CCN(c5ncc(Cc6ccccc6)cn5)CC4)n3)cc2)C1` [Compound 217], the figure is below 10 nM; as for `CN1CCC[C@@H]1COc1ccc(Nc2ncnc(N3CCN(c4ncc(Cc5ccccc5)cn4)CC3)n2)cc1` [Compound 218], below 10 nM.
For `CN1CCC[C@H]1COc1ccc(Nc2ncnc(N3CCN(c4ncc(Cc5ccccc5)cn4)CC3)n2)cc1` [Compound 219], the IC50 is below 10 nM.
For `CN1CCN(c2ccc(Nc3ncnc(N4CCN(c5ncc(Cc6ccccc6)cn5)CC4)n3)cc2F)CC1` [Compound 237], the IC50 was in the range of 11 to 100 nM.
On the same count and under the same terms, to `CN(C)[C@H]1CCN(Cc2cccc(Nc3ncnc(N4CCN(c5ncc(Cc6ccccc6)cn5)CC4)n3)c2)C1` [Compound 260] belongs below 10 nM; to `CN1CCC[C@@H]1COc1ccc(Nc2ncnc(N3CCN(c4ncc(Cc5ccccc5)c(N)n4)CC3)n2)cc1` [Compound 265], below 10 nM.
Still for that read-out and setting: as for `CN1CCC[C@H]1COc1ccc(Nc2ncnc(N3CCN(c4ncc(Cc5ccccc5)c(N)n4)CC3)n2)cc1` [Compound 266], the figure is below 10 nM.
Same read-out and setting: to `FC(F)(F)CN1CCc2ccc(Nc3ncnc(N4CCN(c5ncc(Cc6ccccc6)cn5)CC4)n3)cc2C1` [Compound 268] belongs 100 to 1000 nM.

For a further assay, the target named is T2, PDGFRA D842V (Homo sapiens, UniProt P16234, D842V).
T2 construct: purchased ProQinase 0761-0000-1
T2 sequence (P16234 24-1089 D842V): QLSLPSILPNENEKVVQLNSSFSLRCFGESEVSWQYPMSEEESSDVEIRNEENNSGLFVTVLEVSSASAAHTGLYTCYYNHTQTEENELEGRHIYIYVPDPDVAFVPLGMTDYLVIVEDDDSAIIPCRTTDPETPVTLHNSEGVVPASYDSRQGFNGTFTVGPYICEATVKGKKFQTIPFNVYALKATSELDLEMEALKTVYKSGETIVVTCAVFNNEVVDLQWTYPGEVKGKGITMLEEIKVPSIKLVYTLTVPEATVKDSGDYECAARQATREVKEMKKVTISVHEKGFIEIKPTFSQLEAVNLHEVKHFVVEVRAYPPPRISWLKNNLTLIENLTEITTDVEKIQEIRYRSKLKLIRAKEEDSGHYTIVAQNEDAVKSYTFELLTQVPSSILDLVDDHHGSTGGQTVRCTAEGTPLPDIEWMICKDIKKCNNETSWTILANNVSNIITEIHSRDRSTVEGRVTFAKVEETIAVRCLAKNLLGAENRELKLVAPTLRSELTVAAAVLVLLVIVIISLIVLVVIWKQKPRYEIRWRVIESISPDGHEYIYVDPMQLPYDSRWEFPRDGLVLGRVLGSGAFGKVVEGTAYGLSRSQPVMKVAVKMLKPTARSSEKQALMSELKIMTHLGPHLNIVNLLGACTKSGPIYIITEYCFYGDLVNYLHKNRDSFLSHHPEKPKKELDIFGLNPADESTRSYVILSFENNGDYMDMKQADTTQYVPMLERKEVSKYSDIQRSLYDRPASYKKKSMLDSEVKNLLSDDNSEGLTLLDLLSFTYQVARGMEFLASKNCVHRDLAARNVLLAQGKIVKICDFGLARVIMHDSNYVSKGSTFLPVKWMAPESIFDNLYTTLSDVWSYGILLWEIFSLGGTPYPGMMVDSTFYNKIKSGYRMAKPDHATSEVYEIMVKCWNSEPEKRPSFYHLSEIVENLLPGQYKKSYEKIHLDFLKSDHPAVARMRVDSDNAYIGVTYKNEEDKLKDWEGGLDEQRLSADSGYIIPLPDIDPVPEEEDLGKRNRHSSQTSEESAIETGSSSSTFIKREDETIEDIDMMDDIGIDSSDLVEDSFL
The experiment in a line: PDGFRA D842V assay at Km (Caliper electrophoretic mobility shift). Format: biochemical. Conditions: 15 uM ATP, 25 C, 90 minutes; read-out: PDFGRA D842V. How it is done:
as §1
The reaction was stopped by the addition of 70 ul of Stop buffer (100 mM HEPES pH 7.5, 0.015% Brij 35, 35 mM EDTA and 0.2% of Coating Reagent 3 (Caliper Lifesciences)). The plate was then read on a Caliper EZReader 2 (protocol settings: −1.9 psi, upstream voltage −500, downstream voltage −3000, post sample sip 38 s).
Consider `OC[C@@H](O)c1ccc(Nc2ncnc(N3CCN(c4ncc(Cc5ccccc5)cn4)CC3)n2)cc1` (single isomer, unassigned) [Compound 56], for which the IC50 is below 1 nM.
On the same count and under the same terms, as for `OC[C@H](O)c1ccc(Nc2ncnc(N3CCN(c4ncc(Cc5ccccc5)cn4)CC3)n2)cc1` (single isomer, unassigned) [Compound 57], the figure is 1.01 to 10 nM; as for `C[C@]1(O)CCCN(c2ccc(Nc3ncnc(N4CCN(c5ncc(Cc6ccccc6)cn5)CC4)n3)cc2)C1` (single isomer, unassigned) [Compound 226], 1.01 to 10 nM; as for `c1ccc(Cc2cnc(N3CCN(c4ncnc(Nc5cccc(O[C@@H]6CCNC6)c5)n4)CC3)nc2)cc1` [Compound 106], 1.01 to 10 nM.

The target of another assay is T3, D816V Kit (Homo sapiens, UniProt P10721, D816V).
T3 construct: purchased Carna Bioscience 08-156
T3 sequence (P10721 26-976 D816V): as the sequence (P10721 26-976) above, with D791V counted along it
The assay is described as follows: Kit D816V assay at Km (Caliper electrophoretic mobility shift). Format: biochemical. Conditions: 15 uM ATP, 25 C, 90 minutes. The essentials:
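Read-out is the ratio of phosphorylated to unphosphorylated fluorescent peptide, resolved by mobility shift on a Caliper EZ Reader 2.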
For the molecule `OC[C@@H](O)c1ccc(Nc2ncnc(N3CCN(c4ncc(Cc5ccccc5)cn4)CC3)n2)cc1` (single isomer, unassigned) [Compound 56], the IC50 is below 1 nM.
Consider `OC[C@H](O)c1ccc(Nc2ncnc(N3CCN(c4ncc(Cc5ccccc5)cn4)CC3)n2)cc1` (single isomer, unassigned) [Compound 57], for which the IC50 is below 1 nM.
`C[C@]1(O)CCCN(c2ccc(Nc3ncnc(N4CCN(c5ncc(Cc6ccccc6)cn5)CC4)n3)cc2)C1` (single isomer, unassigned) [Compound 226]: the IC50 lay within 1.01 to 10 nM.
The same measure, in the same setting: to `FC1(Cn2cc(Nc3ncnc(N4CCN(c5ncc(Cc6ccccc6)cn5)CC4)n3)cn2)CCNCC1` [Compound 191] belongs below 1 nM; to `Cc1cc(N2CCN(C)CC2)ccc1Nc1ncnc(N2CCN(c3ncc(Cc4ccccc4)cn3)CC2)n1` [Compound 212], 1.01 to 10 nM.
Same read-out and setting: to `COCCN1CCc2ccc(Nc3ncnc(N4CCN(c5ncc(Cc6ccccc6)cn5)CC4)n3)cc2C1` [Compound 215] belongs below 1 nM; to `CN1CCC[C@@H](Oc2ccc(Nc3ncnc(N4CCN(c5ncc(Cc6ccccc6)cn5)CC4)n3)cc2)C1` [Compound 216], below 1 nM; to `CN1CCC[C@H](Oc2ccc(Nc3ncnc(N4CCN(c5ncc(Cc6ccccc6)cn5)CC4)n3)cc2)C1` [Compound 217], below 1 nM.
Turning to `CN1CCC[C@@H]1COc1ccc(Nc2ncnc(N3CCN(c4ncc(Cc5ccccc5)cn4)CC3)n2)cc1` [Compound 218], the IC50 was below 1 nM.
On the same count and under the same terms, as for `CN1CCC[C@H]1COc1ccc(Nc2ncnc(N3CCN(c4ncc(Cc5ccccc5)cn4)CC3)n2)cc1` [Compound 219], the figure is below 1 nM; as for `CN1CCN(c2ccc(Nc3ncnc(N4CCN(c5ncc(Cc6ccccc6)cn5)CC4)n3)cc2F)CC1` [Compound 237], below 1 nM; as for `CN(C)[C@H]1CCN(Cc2cccc(Nc3ncnc(N4CCN(c5ncc(Cc6ccccc6)cn5)CC4)n3)c2)C1` [Compound 260], below 1 nM.
On the same count and under the same terms, to `CN1CCC[C@@H]1COc1ccc(Nc2ncnc(N3CCN(c4ncc(Cc5ccccc5)c(N)n4)CC3)n2)cc1` [Compound 265] belongs below 1 nM; to `CN1CCC[C@H]1COc1ccc(Nc2ncnc(N3CCN(c4ncc(Cc5ccccc5)c(N)n4)CC3)n2)cc1` [Compound 266], below 1 nM.
For `FC(F)(F)CN1CCc2ccc(Nc3ncnc(N4CCN(c5ncc(Cc6ccccc6)cn5)CC4)n3)cc2C1` [Compound 268], the IC50 lay in the range of 1.01 to 10 nM.

A further assay addresses T4, Kit D816V (HMC1.2 cells, Kit V560G and D816V) (Homo sapiens, UniProt P10721, D816V/V560G).
T4 construct: endogenous in cells; host or cells: HMC1.2 cells
The experiment in a line: HMC1.2 autophosphorylation assay (AlphaLISA, phospho-Y719 c-Kit). The settings on record: Kit autophosphorylation at tyrosine 719, 90 minutes, read-out: Cellular Activity. Format: cell-based. The method, boiled down: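 Serum-starved (overnight, serum-free IMDM) HMC1.2 cells were treated for 90 min with a 10-point compound series (25 uM–95.4 pM, 0.25% DMSO final). Lysates were probed with phospho-Y719 and total c-Kit antibodies (15 nM final) plus AlphaLISA acceptor and streptavidin donor beads (2 h each, RT), with AlphaScreen read-out.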
In general terms: In Alpha technology, singlet oxygen from a donor bead excites a nearby acceptor bead.
As for `OC[C@@H](O)c1ccc(Nc2ncnc(N3CCN(c4ncc(Cc5ccccc5)cn4)CC3)n2)cc1` (single isomer, unassigned) [Compound 56], the IC50 lay in the range of 10 to 100 nM.
The same measure, in the same setting: as for `OC[C@H](O)c1ccc(Nc2ncnc(N3CCN(c4ncc(Cc5ccccc5)cn4)CC3)n2)cc1` (single isomer, unassigned) [Compound 57], the figure is 10 to 100 nM; as for `C[C@]1(O)CCCN(c2ccc(Nc3ncnc(N4CCN(c5ncc(Cc6ccccc6)cn5)CC4)n3)cc2)C1` (single isomer, unassigned) [Compound 226], 10 to 100 nM.
The same measure, in the same setting: as for `FC1(Cn2cc(Nc3ncnc(N4CCN(c5ncc(Cc6ccccc6)cn5)CC4)n3)cn2)CCNCC1` [Compound 191], the figure is below 10 nM; as for `Cc1cc(N2CCN(C)CC2)ccc1Nc1ncnc(N2CCN(c3ncc(Cc4ccccc4)cn3)CC2)n1` [Compound 212], 100 to 1000 nM.
Same read-out and setting: as for `COCCN1CCc2ccc(Nc3ncnc(N4CCN(c5ncc(Cc6ccccc6)cn5)CC4)n3)cc2C1` [Compound 215], the figure is 10 to 100 nM; as for `CN1CCC[C@@H](Oc2ccc(Nc3ncnc(N4CCN(c5ncc(Cc6ccccc6)cn5)CC4)n3)cc2)C1` [Compound 216], below 10 nM; as for `CN1CCC[C@H](Oc2ccc(Nc3ncnc(N4CCN(c5ncc(Cc6ccccc6)cn5)CC4)n3)cc2)C1` [Compound 217], below 10 nM.
In the case of `CN1CCC[C@@H]1COc1ccc(Nc2ncnc(N3CCN(c4ncc(Cc5ccccc5)cn4)CC3)n2)cc1` [Compound 218], the IC50 lay in the range of 10 to 100 nM.
As for `CN1CCC[C@H]1COc1ccc(Nc2ncnc(N3CCN(c4ncc(Cc5ccccc5)cn4)CC3)n2)cc1` [Compound 219], the IC50 is 10 to 100 nM.
Consider `CN1CCN(c2ccc(Nc3ncnc(N4CCN(c5ncc(Cc6ccccc6)cn5)CC4)n3)cc2F)CC1` [Compound 237], for which the IC50 was in the range of 10 to 100 nM.
On the same count and under the same terms, to `CN(C)[C@H]1CCN(Cc2cccc(Nc3ncnc(N4CCN(c5ncc(Cc6ccccc6)cn5)CC4)n3)c2)C1` [Compound 260] belongs 10 to 100 nM; to `CN1CCC[C@@H]1COc1ccc(Nc2ncnc(N3CCN(c4ncc(Cc5ccccc5)c(N)n4)CC3)n2)cc1` [Compound 265], below 10 nM.
Same read-out and setting: as for `CN1CCC[C@H]1COc1ccc(Nc2ncnc(N3CCN(c4ncc(Cc5ccccc5)c(N)n4)CC3)n2)cc1` [Compound 266], the figure is below 10 nM; as for `FC(F)(F)CN1CCc2ccc(Nc3ncnc(N4CCN(c5ncc(Cc6ccccc6)cn5)CC4)n3)cc2C1` [Compound 268], 100 to 1000 nM.
